Experimental data from patent publication US11247970B2, “Selective inhibition of gluconeogenic activity” (Dana-Farber Cancer Institute, Inc., priority 2017, dated 2022).
Entries after “also recorded” stand apart in the source; their conditions may differ.

How the values were obtained:
[1] = test system: Pck1 gene expression in liver; assay: qPCR of gluconeogenic genes in liver of treated mice; format: in vivo; settings: livers from fasted treated mice
Protocol: All mice were purchased from Jackson laboratories and housed under a 12 h light/12 h dark cycle at 22° C. Before handling, mice were allowed to acclimate for at least 1 week in our animal facility. For in vivo studies with DIO mice, males 6-8 weeks old were fed HFD for the indicated time. For drug administration, SR-18292 was re-suspended in a 10% DMSO/10% Tween80/80% PBS solution at a final concentration of 6-12 mg/ml. Metformin was re-suspended in the same solution at a 20 mg/ml concentration. SR-18292 was injected via I.P. for 3 days between 4-5 pm and food was removed on day 3 at 5 pm. […] Metformin was administered via oral gavage. […] Insulin tolerance test was performed following the same dosing protocol, but mice were fasted for 4 hours after the forth injection before performing the test. Insulin was injected via I.P. (0.5 U/Kg) and blood glucose was measured every 20 minutes. Glycemia was measured by tail bleed using a glucometer (OneTouch). […] Total RNA was extracted from cells or pulverized liver using TRIzol reagent (Ambion, Life Technologies), followed by cDNA preparation from 2 μg of total RNA with a High-Capacity cDNA Reverse Transcription Kit (Applied Biosystems). cDNA products were quantified by real-time PCR using Power SYBR Green PCR Master Mix (Applied Biosystems) on a CFX384 Real-Time PCR System (Bio-Rad). […]

[2] = Liver and serum lipids, metabolites and liver gene expression in treated HFD mice; format: in vivo
Protocol: Total RNA was extracted from cells or pulverized liver using TRIzol reagent (Ambion, Life Technologies), followed by cDNA preparation from 2 μg of total RNA with a High-Capacity cDNA Reverse Transcription Kit (Applied Biosystems). cDNA products were quantified by real-time PCR using Power SYBR Green PCR Master Mix (Applied Biosystems) on a CFX384 Real-Time PCR System (Bio-Rad). To calculate IC50 from C-80 dose response, curves were fit to the hill equation in a similar manner used to calculate estimated AC50 from the high-throughput qPCR screen. However, unlike the curves from the qPCR high-throughput screen, values of relative repression were used rather than of delta-Ct.
Serum samples were gathered from blood collected by cardiac puncture. Insulin was measured with Ultra Sensitive Mouse Insulin ELISA Kit (Crystal Chem, 90080). Kits used to measure alanine transaminase (EALT-100), aspartate transaminase (EASTR-100), lactate dehydrogenase (DLDH-100) were purchased from Bioassay Systems. Kits used to measure lactate (MAK 064), b-hydroxybutyrate (MAK 041), Triglycerides (TR0100) were purchased from Sigma. Kit used to measure cholesterol (C7510) was purchased from Pointe Scientific. Kit used to measure non-esterified fatty acids was purchased from Wako.

SMILES: Cc1ccc(CN(CC(O)COc2cccc3[nH]ccc23)C(C)(C)C)cc1 (centres unmarked) [SR-18292, 1-((1H-indol-4-yl)oxy)-3-(tert-butyl(4-methylbenzyl)amino)propan-2-ol]
- gluconeogenic gene expression (Pck1) in liver [1]: inhibited
- serum lactate and ketone bodies (β-hydroxybutyrate) ([2]; HFD 4 weeks): not changed; also recorded: not altered
- serum levels of TG, free fatty acids and cholesterol ([2]; HFD 13 weeks): not significantly altered
- transcriptional lipid metabolic profile in liver ([2]; HFD 13 weeks): not significantly altered; also recorded: not changed
- liver TG and cholesterol levels ([2]; HFD 17 weeks, also after prolonged treatment): not changed
